Five molecules from ChEMBL document CHEMBL1955732, “Synthesis and biological evaluation of 21-arylidenepregnenolone derivatives as neuroprotective agents” (Bioorg Med Chem Lett, 2012) can be followed below.

Data set [1] deals with PC-12. Nature of the data set: Neuroprotective activity against Abeta25-35-induced […] cells assessed as cell viability at 10 uM preincubated for 2 hrs prior Abeta25-35 challenge measured after 24 hrs by MTT assay. Format: functional. To be noted: Rattus norvegicus, read-out: Activity. On the technique in general: Formazan colour is commonly taken as a measure of viable cells.

Data set [2] has as its system PC-12. Nature of the data set: Neuroprotective activity against Abeta25-35-induced […] cells assessed as cell viability at 1 uM preincubated for 2 hrs prior Abeta25-35 challenge measured after 24 hrs by MTT assay. Format: functional. To be noted: Rattus norvegicus.
The test system of data set [3] is SH-SY5Y. Nature of the data set: Neuroprotective activity against oxygen-glucose deprivation-induced human SH-SY5Y cells assessed as cell viability at 5 uM preincubated for 2 hrs prior oxygen-glucose deprivation challenge for 1 hr measured after 24 hrs incubation under normal condition by MTT assay. Format: functional. Particulars: read-out: Activity.
For data set [4], the system named is PC-12. The data set can be described thus: Cytotoxicity against […] cells at 10 uM after 24 hrs by MTT assay. In kind it is cell-based. To be noted: rat, pc-12, 24 h.
The nature of data set [5]: Solubility of the compound at 1 uM. In kind it is physicochemical.
A short description of data set [6]: Solubility of the compound at 10 uM. Format: physicochemical.
Data set [7] deals with PC-12. Nature of the data set: Neuroprotective activity against H2O2-induced […] cells assessed as cell viability at 10 uM preincubated for 2 hrs prior H2O2 challenge measured after 24 hrs by MTT assay. In kind it is functional. To be noted: Rattus norvegicus, read-out: Activity.
Data set [8] has as its system SH-SY5Y. Nature of the data set: Neuroprotective activity against oxygen-glucose deprivation-induced human SH-SY5Y cells assessed as cell viability at 10 uM preincubated for 2 hrs prior oxygen-glucose deprivation challenge for 1 hr measured after 24 hrs incubation under normal condition by MTT assay. In kind it is functional. To be noted: read-out: Activity.

Calls of active or inactive are those of the source. The calls are words filed in the database; no cut-off is given here.

Regarding `Cc1ccccc1/C=C/C(=O)[C@H]1CC[C@H]2[C@@H]3CC=C4C[C@@H](O)CC[C@]4(C)[C@H]3CC[C@]12C`, the viability at 10 µM in the data set on PC-12 [1] was found to be 50.4%. For the same molecule, the result in the data set with PC-12 [2] was inactive. In the data set with SH-SY5Y [3], the viability at 5 µM was 84.8%. The Activity result with PC-12 [4] is on record as “Toxic”.

Turning to `C[C@]12CC[C@H]3[C@@H](CC=C4C[C@@H](O)CC[C@@]43C)[C@@H]1CC[C@@H]2C(=O)/C=C/c1ccc(Br)cc1`, the solubility result in data set [5] and in data set [6] was “Insoluble” in each case.

`COc1ccccc1/C=C/C(=O)[C@H]1CC[C@H]2[C@@H]3CC=C4C[C@@H](O)CC[C@]4(C)[C@H]3CC[C@]12C`: the viability at 10 µM in the data set with PC-12 [1] was found to be 74.5%; in the data set on PC-12 [7], 83.7%. For the same molecule, in the data set with PC-12 [2] (read-out: Activity), the viability at 1 µM was found to be 64.1%.

Consider `COc1ccccc1/C=C/C(=O)[C@H]1CC[C@H]2[C@@H]3C[C@@H]4O[C@@]45C[C@@H](O)CC[C@]5(C)[C@H]3CC[C@]12C`, for which the viability at 10 µM in the data set on PC-12 [1] was 73.7%; in the data set with SH-SY5Y [8], 98.7%. In the data set on PC-12 [2], the outcome was inactive.

Regarding `CCOc1ccccc1/C=C/C(=O)[C@H]1CC[C@H]2[C@@H]3C[C@@H]4O[C@@]45C[C@@H](O)CC[C@]5(C)[C@H]3CC[C@]12C`, the viability at 10 µM with PC-12 [1] is 49.5%. Also, the result in the data set with PC-12 [2] was inactive. Also, the viability at 5 µM in the data set with SH-SY5Y [3] was determined as 98.8%. The Activity entry in the data set on PC-12 [4] is given as “Toxic”.
